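These data come from cells grown in 96-well plates and exposed to compound for 48 hours at five concentrations. GI50: concentration for 50% inhibition of growth.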 Active and inactive are the calls of the source. Rule as the data show it: active = GI50 up to about 1.1 µM and inactive = higher.
Experiments:
Assay in all cases: NCI-60 cell line screen, 48 h
[1] = tested on: EKVX
[2] = tested on: HCC 2998
[3] = tested on: HL-60
[4] = tested on: HOP-92
[5] = tested on: K562
[6] = tested on: M14
[7] = tested on: MDA-MB-231
[8] = tested on: Malme-3M
[9] = tested on: NCI-H226
[10] = tested on: NCI-H460
[11] = tested on: NCI-H522
[12] = tested on: OVCAR-5
[13] = tested on: RPMI-8226
[14] = tested on: RXF 393
[15] = tested on: SF-295
[16] = tested on: SF-539
[17] = tested on: SNB-19
[18] = tested on: SR
[19] = tested on: SW-620
[20] = tested on: TK-10

Structure (SMILES) | GI50 [1] | GI50 [2] | GI50 [3] | GI50 [4] | GI50 [5] | GI50 [6] | GI50 [7] | GI50 [8] | GI50 [9] | GI50 [10] | GI50 [11] | GI50 [12] | GI50 [13] | GI50 [14] | GI50 [15] | GI50 [16] | GI50 [17] | GI50 [18] | GI50 [19] | GI50 [20]
C=CCn1c(=O)ccn(/C(=C/C(=O)OCC)C(=O)OCC)c1=O | 17.2 µM (inactive) | 16.5 µM (inactive) | 1.76 µM (inactive) | 2.36 µM (inactive) | 3.08 µM (inactive) | 13.5 µM (inactive) | 9.82 µM (inactive) | 11 µM (inactive) | 13.9 µM (inactive) | 16.1 µM (inactive) | 2.44 µM (inactive) | 15.6 µM (inactive) | 7.94 µM (inactive) | 14.1 µM (inactive) | > 52.4 µM (inactive) | 24 µM (inactive) | 29.4 µM (inactive) | 6.4 µM (inactive) | 2.18 µM (inactive) | 11.9 µM (inactive)
BrC(Br)=C1C(=C(Br)Br)C(Br)C1Br (stereo not given) | 2.08 µM (inactive) | 0.142 µM (active) | < 0.0125 µM (active) | 1.34 µM (inactive) | 0.158 µM (active) | 0.198 µM (active) | 1.12 µM (inactive) | 0.418 µM (active) | 0.275 µM (active) | 0.114 µM (active) | 0.139 µM (active) | 1.69 µM (inactive) | 0.158 µM (active) | 0.226 µM (active) | 0.778 µM (active) | 0.811 µM (active) | 1.95 µM (inactive) | 0.043 µM (active) | 0.207 µM (active) | 0.682 µM (active)
C/C=C/[C@H]1O[C@@](OC)([C@@H](C)[C@H](O)[C@H](C)[C@H]2OC(=O)/C(OC)=C/C(C)=C/[C@@H](C)[C@@H](O)[C@@H](C)[C@@H](O)[C@H](C)C/C(C)=C/C=C/[C@@H]2OC)CC(OC2CC(O)C(OC(N)=O)C(C)O2)[C@@H]1C (stereo not given in full) | < 0.01 µM (active) | < 0.01 µM (active) | < 0.01 µM (active) | 0.103 µM (active) | < 0.01 µM (active) | < 0.01 µM (active) | < 0.01 µM (active) | < 0.01 µM (active) | < 0.01 µM (active) | < 0.01 µM (active) | < 0.01 µM (active) | 1.82 µM (inactive) | < 0.01 µM (active) | 2.39 µM (inactive) | < 0.01 µM (active) | < 0.01 µM (active) | 2.9 µM (inactive) | < 0.01 µM (active) | < 0.01 µM (active) | 8.79 µM (inactive)
Cc1cccc(/C=N/NC(=S)NC2CCCCC2)n1 | 22.4 µM (inactive) | 20.7 µM (inactive) | 2.86 µM (inactive) | 10.1 µM (inactive) | 4.61 µM (inactive) | 23 µM (inactive) | 35.1 µM (inactive) | 16.2 µM (inactive) | 15.7 µM (inactive) | 13.5 µM (inactive) | 7.96 µM (inactive) | 15.2 µM (inactive) | 6.92 µM (inactive) | 18.5 µM (inactive) | 29 µM (inactive) | 27.7 µM (inactive) | 34.8 µM (inactive) | 4.76 µM (inactive) | 9.25 µM (inactive) | 58.5 µM (inactive)
O=C1CC2(CCNCC2)C(=O)N1N1CCOCC1 | > 100 µM (inactive) | > 100 µM (inactive) | > 100 µM (inactive) | > 100 µM (inactive) | > 100 µM (inactive) | > 100 µM (inactive) | > 100 µM (inactive) | > 100 µM (inactive) | > 100 µM (inactive) | > 100 µM (inactive) | > 100 µM (inactive) | > 100 µM (inactive) | > 100 µM (inactive) | > 100 µM (inactive) | > 100 µM (inactive) | > 100 µM (inactive) | > 100 µM (inactive) | > 100 µM (inactive) | > 100 µM (inactive) | > 100 µM (inactive)
CC1(C)CC[C@]2(C(=O)O)CC[C@]3(C)[C@H](C(=O)C=C4[C@@]5(C)C=C(C#N)C(=O)C(C)(C)[C@@H]5CC[C@]43C)[C@@H]2C1 [BARDOXOLONE] | 1.34 µM (inactive) | < 0.0412 µM (active) | 0.205 µM (active) | 1.29 µM (inactive) | 0.263 µM (active) | 0.769 µM (active) | 1.31 µM (inactive) | 0.224 µM (active) | 0.416 µM (active) | 0.486 µM (active) | 0.923 µM (active) | 0.488 µM (active) | 0.0214 µM (active) | 0.0995 µM (active) | 0.573 µM (active) | 0.569 µM (active) | 0.303 µM (active) | 0.0561 µM (active) | 0.492 µM (active) | 0.678 µM (active)
CC1=C(C)CC2C(=O)N(c3cc(C(C)(C)C)ccc3C(C)(C)C)C(=O)C2C1 (stereo not given) | > 100 µM (inactive) | 52.6 µM (inactive) | > 100 µM (inactive) | 26.2 µM (inactive) | > 100 µM (inactive) | 52.1 µM (inactive) | > 100 µM (inactive) | 4.55 µM (inactive) | > 100 µM (inactive) | > 100 µM (inactive) | 8.2 µM (inactive) | > 100 µM (inactive) | > 100 µM (inactive) | 23.8 µM (inactive) | 48.2 µM (inactive) | 78.3 µM (inactive) | 23.1 µM (inactive) | > 100 µM (inactive) | > 100 µM (inactive) | 66.1 µM (inactive)
N#CC1CCCC2SC(F)(F)C(F)(F)C12 (stereo not given) | > 100 µM (inactive) | > 100 µM (inactive) | 19.7 µM (inactive) | > 100 µM (inactive) | 30.5 µM (inactive) | > 100 µM (inactive) | > 100 µM (inactive) | > 100 µM (inactive) | > 100 µM (inactive) | > 100 µM (inactive) | > 87.5 µM (inactive) | > 100 µM (inactive) | > 46.8 µM (inactive) | > 100 µM (inactive) | > 100 µM (inactive) | > 100 µM (inactive) | > 100 µM (inactive) | 23.8 µM (inactive) | > 100 µM (inactive) | > 100 µM (inactive)
Cc1cc(Cl)ccc1Nc1sc(C(=O)c2cc3cc(Cl)ccc3o2)c(N)c1C#N | 17.9 µM (inactive) | 3.1 µM (inactive) | > 80.5 µM (inactive) | 47 µM (inactive) | 18.7 µM (inactive) | 9.57 µM (inactive) | 4.99 µM (inactive) | 80.5 µM (inactive) | > 87.7 µM (inactive) | 5.96 µM (inactive) | 3.42 µM (inactive) | > 43.7 µM (inactive) | 2.27 µM (inactive) | 27.7 µM (inactive) | 4.76 µM (inactive) | 6.53 µM (inactive) | 6.89 µM (inactive) | > 100 µM (inactive) | 15.2 µM (inactive) | > 35.8 µM (inactive)
COC(=O)c1ccccc1C1CN=NC12Cc1ccc(C)cc1C2=O (stereo not given) | 65.8 µM (inactive) | 64.7 µM (inactive) | 33.3 µM (inactive) | 38.9 µM (inactive) | 46.6 µM (inactive) | 65.2 µM (inactive) | > 100 µM (inactive) | 86.5 µM (inactive) | 73.1 µM (inactive) | > 100 µM (inactive) | 30.5 µM (inactive) | > 100 µM (inactive) | 49.7 µM (inactive) | 97.7 µM (inactive) | 46.8 µM (inactive) | > 100 µM (inactive) | 70.3 µM (inactive) | 63.8 µM (inactive) | 45.2 µM (inactive) | > 100 µM (inactive)
O=C(Nc1ccccc1)c1cc(S(=O)(=O)NC2=Nc3ccc(Cl)cc3C(c3ccccc3)N2)c(SSc2cc(Cl)c(C(=O)Nc3ccccc3)cc2S(=O)(=O)NC2=Nc3ccc(Cl)cc3C(c3ccccc3)N2)cc1Cl (stereo not given) | > 100 µM (inactive) | > 100 µM (inactive) | > 36.1 µM (inactive) | > 100 µM (inactive) | 38 µM (inactive) | > 57.4 µM (inactive) | > 45.3 µM (inactive) | > 100 µM (inactive) | > 100 µM (inactive) | > 100 µM (inactive) | > 100 µM (inactive) | > 61.5 µM (inactive) | 55.3 µM (inactive) | > 100 µM (inactive) | > 100 µM (inactive) | > 100 µM (inactive) | > 100 µM (inactive) | 13.6 µM (inactive) | > 100 µM (inactive) | > 100 µM (inactive)
N#CC1=C(N2CCCC2)NC(=O)CC1=O | > 100 µM (inactive) | > 100 µM (inactive) | > 100 µM (inactive) | > 100 µM (inactive) | > 100 µM (inactive) | > 100 µM (inactive) | > 100 µM (inactive) | > 100 µM (inactive) | > 100 µM (inactive) | > 100 µM (inactive) | > 100 µM (inactive) | > 100 µM (inactive) | > 100 µM (inactive) | > 100 µM (inactive) | > 100 µM (inactive) | > 100 µM (inactive) | > 100 µM (inactive) | > 100 µM (inactive) | > 100 µM (inactive) | > 100 µM (inactive)
C=C1CC2CC[C@@]34C[C@H]5O[C@@H]6C(O[C@H]7CC[C@H](CC(=O)OC8[C@H](C)C9OC%10C[C@]%11(C[C@@H]%12O[C@]%13(C[C@H](C)[C@@H]%14O[C@H]([C@H](O)C[C@H](O)CO)C[C@@H]%14O%13)C[C@H](C)[C@@H]%12O%11)OC%10CC9O[C@H]8C[C@H]8O[C@H](CC[C@@H]1O2)C[C@@H](C)C8=C)O[C@H]7[C@@H]6O3)[C@@H]5O4 (stereo not given in full) | 0.000141 µM (active) | 0.00201 µM (active) | 0.000237 µM (active) | 0.00166 µM (active) | 0.000484 µM (active) | 0.00143 µM (active) | 0.000728 µM (active) | 0.00131 µM (active) | 0.00231 µM (active) | 0.000859 µM (active) | 0.000211 µM (active) | 0.00845 µM (active) | 0.000255 µM (active) | 0.000674 µM (active) | 0.00046 µM (active) | 0.000676 µM (active) | 0.00191 µM (active) | 0.000498 µM (active) | 0.000482 µM (active) | 0.00681 µM (active)
